Measurements: the NIST ThermoML archive (doi:10.1021/acs.jced.5b00367)

Assay: wn = mass fraction of the nth substance listed
Conditions: 101 kPa, Liquid, Alternating current cell with electrodes, w1 = 0.01

CCCCCCCCCC[N+](CC)(CC)CCCCCCCCCC.[Br-] [didecyldiethylammonium bromide] + O
Conditions | electrical conductivity [S/m]
277.55 K | 0.0116
277.75 K | 0.0115
277.85 K | 0.0116
277.95 K | 0.0116
278.15 K | 0.0117
278.25 K | 0.0117
278.35 K | 0.0117
278.45 K | 0.0116
278.55 K | 0.0116
278.65 K | 0.0116
278.75 K | 0.0117
278.85 K | 0.0117
279.05 K | 0.0118
279.15 K | 0.0118
279.25 K | 0.0118
279.35 K | 0.0119
279.55 K | 0.012
279.65 K | 0.012
279.85 K | 0.012
279.95 K | 0.012
280.15 K | 0.0121
280.25 K | 0.0121
280.35 K | 0.0122
280.45 K | 0.0122
280.55 K | 0.0123
280.65 K | 0.0123
280.75 K | 0.0123
280.95 K | 0.0123
281.05 K | 0.0124
281.15 K | 0.0124
281.25 K | 0.0124
281.35 K | 0.0125
281.45 K | 0.0126
281.55 K | 0.0126
281.65 K | 0.0127
281.75 K | 0.0127
281.85 K | 0.0127
281.95 K | 0.0127
282.05 K | 0.0128
282.15 K | 0.0129
282.35 K | 0.0128
282.45 K | 0.0129
282.55 K | 0.013
282.65 K | 0.013
282.75 K | 0.0131
282.85 K | 0.0131
282.95 K | 0.0131
283.05 K | 0.0132
283.15 K | 0.0132
283.25 K | 0.0133
283.35 K | 0.0133
283.45 K | 0.0134
283.55 K | 0.0134
283.75 K | 0.0135
283.85 K | 0.0136
283.95 K | 0.0136
284.05 K | 0.0136
284.15 K | 0.0137
284.25 K | 0.0137
284.35 K | 0.0138
284.45 K | 0.0139
284.55 K | 0.0138
284.65 K | 0.0139
284.75 K | 0.014
284.85 K | 0.0141
284.95 K | 0.0141
285.05 K | 0.0143
285.15 K | 0.0143
285.25 K | 0.0142
285.35 K | 0.0144
285.45 K | 0.0145
285.55 K | 0.0146
285.65 K | 0.0146
285.75 K | 0.0148
285.85 K | 0.0147
285.95 K | 0.015
286.05 K | 0.015
286.15 K | 0.0152
286.25 K | 0.0152
286.35 K | 0.0154
286.45 K | 0.0155
286.55 K | 0.0157
286.65 K | 0.0158
286.75 K | 0.016
286.85 K | 0.0161
286.95 K | 0.0164
287.05 K | 0.0164
287.15 K | 0.0167
287.25 K | 0.0169
287.35 K | 0.0172
287.45 K | 0.0175
287.55 K | 0.0177
287.65 K | 0.0179
287.75 K | 0.0182
287.85 K | 0.0186
287.95 K | 0.0189
288.05 K | 0.0192
288.15 K | 0.0196
288.25 K | 0.0201
288.35 K | 0.0206
288.45 K | 0.021
288.55 K | 0.0213
288.65 K | 0.0218
288.75 K | 0.022
288.85 K | 0.0225
288.95 K | 0.0227
289.05 K | 0.0228
289.15 K | 0.0233
289.25 K | 0.0238
289.35 K | 0.0241
289.45 K | 0.0243
289.55 K | 0.0249
289.75 K | 0.0256
289.85 K | 0.0262
289.95 K | 0.0267
290.05 K | 0.0274
290.15 K | 0.028
290.25 K | 0.0287
290.35 K | 0.0297
290.45 K | 0.0305
290.55 K | 0.0311
290.65 K | 0.0319
290.75 K | 0.0329
290.85 K | 0.0339
290.95 K | 0.0352
291.15 K | 0.0365
291.25 K | 0.0379
291.35 K | 0.0395
291.45 K | 0.0401
291.55 K | 0.0419
291.65 K | 0.0447
291.75 K | 0.0451
291.85 K | 0.047
291.95 K | 0.0496
292.05 K | 0.0526
292.15 K | 0.0559
292.25 K | 0.0648
292.35 K | 0.0649
292.45 K | 0.0649
292.55 K | 0.0676
292.65 K | 0.0687
292.75 K | 0.0704
292.85 K | 0.0711
292.95 K | 0.0714
293.05 K | 0.0718
293.15 K | 0.0718
293.35 K | 0.0721
293.45 K | 0.0722
293.55 K | 0.0723
293.65 K | 0.0724
293.75 K | 0.0725
293.85 K | 0.0726
293.95 K | 0.0726
294.05 K | 0.0727
294.15 K | 0.0728
294.35 K | 0.0729
294.45 K | 0.073
294.55 K | 0.0731
294.65 K | 0.0732
294.75 K | 0.0732
294.85 K | 0.0733
294.95 K | 0.0734
295.05 K | 0.0735
295.15 K | 0.0737
295.25 K | 0.0736
295.35 K | 0.0738
295.45 K | 0.0739
295.55 K | 0.074
295.65 K | 0.074
295.75 K | 0.0741
295.85 K | 0.0741
295.95 K | 0.0742
296.05 K | 0.0743
296.15 K | 0.0744
296.25 K | 0.0746
296.35 K | 0.0745
296.45 K | 0.0746
296.55 K | 0.0748
296.65 K | 0.0748
296.75 K | 0.0749
296.85 K | 0.075
296.95 K | 0.075
297.05 K | 0.0752
297.15 K | 0.0752
297.25 K | 0.0752
297.35 K | 0.0754
297.45 K | 0.0755
297.55 K | 0.0755
297.65 K | 0.0757
297.75 K | 0.0757
297.85 K | 0.0758
297.95 K | 0.0759
298.05 K | 0.076
301.15 K | 0.0789
301.25 K | 0.079
301.35 K | 0.0792
301.55 K | 0.0794
301.65 K | 0.0795
301.75 K | 0.0795
301.95 K | 0.0797
302.05 K | 0.0799
302.15 K | 0.08
302.25 K | 0.0801
302.35 K | 0.0802
302.45 K | 0.0802
302.55 K | 0.0803
302.65 K | 0.0803
302.85 K | 0.0806
302.95 K | 0.0807
303.15 K | 0.0809
303.25 K | 0.0811
303.35 K | 0.0811
303.45 K | 0.0812
303.55 K | 0.0814
303.75 K | 0.0816
303.85 K | 0.0817
304.05 K | 0.0818
304.15 K | 0.0819
304.35 K | 0.0821
304.55 K | 0.0823
304.75 K | 0.0825
304.85 K | 0.0826
304.95 K | 0.0827
305.05 K | 0.0829
305.35 K | 0.0831
305.55 K | 0.0831
305.75 K | 0.0836
305.85 K | 0.0838
306.05 K | 0.0839
306.25 K | 0.084
306.35 K | 0.0841
306.45 K | 0.0842
306.65 K | 0.0843
306.75 K | 0.0845
306.95 K | 0.0848
307.05 K | 0.0849
307.25 K | 0.0851
307.55 K | 0.0854
307.65 K | 0.0855
307.85 K | 0.0857
308.15 K | 0.086
308.25 K | 0.0861
308.35 K | 0.0862
308.55 K | 0.0862
308.75 K | 0.0864
308.85 K | 0.0866
309.15 K | 0.0871
309.35 K | 0.0872
309.55 K | 0.0874
309.75 K | 0.0876
309.85 K | 0.0877
309.95 K | 0.0878
310.25 K | 0.088
310.45 K | 0.0882
310.55 K | 0.0883
310.65 K | 0.0884
310.95 K | 0.0888
311.05 K | 0.089
311.25 K | 0.0893
311.45 K | 0.0894
311.65 K | 0.0894
311.75 K | 0.0896
311.85 K | 0.0897
312.15 K | 0.09
312.35 K | 0.0901
312.45 K | 0.0902
312.55 K | 0.0904
312.75 K | 0.0906
312.95 K | 0.0908
313.15 K | 0.091
